Measurements: US12258344B2, “Azaaromatic amide derivatives for the treatment of cancer” (SHENZHEN FORWARD PHARMACEUTICALS CO., LTD., priority 2019, dated 2025)
Counter-ions that a name gives are not always drawn. Like-named read-outs stand apart in the source and are kept apart here.

Key:
Assay type in all cases: cell-based
BaF3 (EGFR/D770insSVD) = molecular target: T1, BaF3 (EGFR/D770insSVD) (Homo sapiens, UniProt P00533, DUP768-770, cells depend on it); test: Test 13: EGFR exon 20 inserted D770insSVD cell proliferation test; details: BaF3 (EGFR/D770insSVD), 72 hours, Cell Titer-Glo, read-out: Test 13 IC50
T1 construct: Test 13 IC50 (nM); other: BaF3 (EGFR/D770insSVD), 72 hours, Cell Titer-Glo
Procedure: Test 13: EGFR Exon 20 Inserted D770insSVD Cell Proliferation Test
(§1) The number of viable cells in the culture was measured according to the protocol described in Promega's Cell Titer-Glo Luminescent cell Viability Assay (Promega catalog number #G7570). 90 μl of cells (3,000 cells/well) were cultured in growth medium in a Corning black transparent bottom 96-well plate, and cultured in a 5% CO2 humidified incubator at 37° C. overnight. The compound serially diluted in 100% DMSO was added to the cells using a pipette, and the cells were incubated for another 72 hours. 100 μl of the mixed Cell Titer-Glo reagent was added to the cells in the 96-well culture plate to lyse the cells and mix gently. Subsequently, the […] was detected on the Envision microplate detector to obtain the data of each compound. Finally, the data was input into a suitable software package (such as Prism) for curve fitting analysis.

BaF3 (EGFR/A763insFQEA) = BaF3 (EGFR/A763insFQEA) (Homo sapiens, UniProt P00533, INS763FQEA, cells depend on it); test: Test 14: EGFR exon 20 inserted A763insFQEA cell proliferation test; details: 72 hours, Cell Titer-Glo, read-out: Test 14 IC50
Procedure: Test 14: EGFR Exon 20 Inserted A763insFQEA Cell Proliferation Test
as §1

BaF3 (EGFR/V769insASV) = BaF3 (EGFR/V769insASV) (Homo sapiens, UniProt P00533, DUP767-769, cells depend on it); test: Test 15: EGFR exon 20 inserted V769insASV cell proliferation test; details: 72 hours, Cell Titer-Glo, read-out: Test 15 IC50
Procedure: Test 15: EGFR Exon 20 Inserted V769insASV Cell Proliferation Test
as §1, with “(3000” for “(3,000”

[1] = tested on: NCI-H1975 (EGFR L858R/T790M double mutant); test: Test 1: EGFR L858R/T790M (EGFR double mutant) cell proliferation test; details: Homo sapiens; NCI-H1975 cells, 72 hours, Cell Titer-Glo
Procedure: Test 1: EGFR L858R/T790M (EGFR Double Mutant) Cell Proliferation Test
The human lung cell line NCI-H1975 (EGFR L858R/T790M double mutant) was obtained from the American Type Culture Collection. NCI-H1975 cells were cultured in RPMI1640 medium containing 10% fetal bovine serum and 2 mM glutamine. The cells were grown at 37° C. in a humidified incubator with 5% CO2.
as §1, with “(8,000” for “(3,000”

T1 sequence (P00533 with tags, fused parts or gaps DUP768-770): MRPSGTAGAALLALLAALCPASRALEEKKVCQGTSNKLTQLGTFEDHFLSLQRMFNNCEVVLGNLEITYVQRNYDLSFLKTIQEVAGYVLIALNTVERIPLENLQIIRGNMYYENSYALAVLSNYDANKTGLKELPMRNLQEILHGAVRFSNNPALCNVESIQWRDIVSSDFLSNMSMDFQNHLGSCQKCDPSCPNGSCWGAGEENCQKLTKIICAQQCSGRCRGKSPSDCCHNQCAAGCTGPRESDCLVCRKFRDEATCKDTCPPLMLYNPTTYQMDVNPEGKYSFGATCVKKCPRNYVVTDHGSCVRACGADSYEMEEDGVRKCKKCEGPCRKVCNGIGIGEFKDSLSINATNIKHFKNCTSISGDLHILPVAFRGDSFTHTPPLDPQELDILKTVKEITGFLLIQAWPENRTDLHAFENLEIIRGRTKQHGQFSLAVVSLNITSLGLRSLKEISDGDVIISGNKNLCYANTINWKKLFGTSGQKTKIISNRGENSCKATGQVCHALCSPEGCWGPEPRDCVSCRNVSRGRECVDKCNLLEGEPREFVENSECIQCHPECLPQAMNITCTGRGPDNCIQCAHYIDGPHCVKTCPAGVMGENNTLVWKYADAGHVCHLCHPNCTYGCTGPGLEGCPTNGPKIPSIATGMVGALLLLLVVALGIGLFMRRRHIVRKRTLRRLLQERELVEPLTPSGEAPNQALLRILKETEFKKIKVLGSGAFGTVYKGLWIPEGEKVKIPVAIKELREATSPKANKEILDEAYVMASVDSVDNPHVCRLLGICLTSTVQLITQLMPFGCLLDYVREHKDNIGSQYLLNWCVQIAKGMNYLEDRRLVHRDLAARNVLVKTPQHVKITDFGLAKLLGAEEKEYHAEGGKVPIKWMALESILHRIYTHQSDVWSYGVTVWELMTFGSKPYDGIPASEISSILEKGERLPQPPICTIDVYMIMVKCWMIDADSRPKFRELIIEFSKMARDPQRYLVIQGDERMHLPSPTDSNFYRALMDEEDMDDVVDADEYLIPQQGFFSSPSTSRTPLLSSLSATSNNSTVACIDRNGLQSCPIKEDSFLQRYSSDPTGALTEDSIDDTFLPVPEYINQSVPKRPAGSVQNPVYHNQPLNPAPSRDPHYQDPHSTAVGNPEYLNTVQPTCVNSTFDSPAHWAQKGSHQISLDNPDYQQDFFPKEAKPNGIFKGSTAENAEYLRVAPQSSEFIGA
Chain of BaF3 (EGFR/V769insASV) (P00533 with tags, fused parts or gaps DUP767-769): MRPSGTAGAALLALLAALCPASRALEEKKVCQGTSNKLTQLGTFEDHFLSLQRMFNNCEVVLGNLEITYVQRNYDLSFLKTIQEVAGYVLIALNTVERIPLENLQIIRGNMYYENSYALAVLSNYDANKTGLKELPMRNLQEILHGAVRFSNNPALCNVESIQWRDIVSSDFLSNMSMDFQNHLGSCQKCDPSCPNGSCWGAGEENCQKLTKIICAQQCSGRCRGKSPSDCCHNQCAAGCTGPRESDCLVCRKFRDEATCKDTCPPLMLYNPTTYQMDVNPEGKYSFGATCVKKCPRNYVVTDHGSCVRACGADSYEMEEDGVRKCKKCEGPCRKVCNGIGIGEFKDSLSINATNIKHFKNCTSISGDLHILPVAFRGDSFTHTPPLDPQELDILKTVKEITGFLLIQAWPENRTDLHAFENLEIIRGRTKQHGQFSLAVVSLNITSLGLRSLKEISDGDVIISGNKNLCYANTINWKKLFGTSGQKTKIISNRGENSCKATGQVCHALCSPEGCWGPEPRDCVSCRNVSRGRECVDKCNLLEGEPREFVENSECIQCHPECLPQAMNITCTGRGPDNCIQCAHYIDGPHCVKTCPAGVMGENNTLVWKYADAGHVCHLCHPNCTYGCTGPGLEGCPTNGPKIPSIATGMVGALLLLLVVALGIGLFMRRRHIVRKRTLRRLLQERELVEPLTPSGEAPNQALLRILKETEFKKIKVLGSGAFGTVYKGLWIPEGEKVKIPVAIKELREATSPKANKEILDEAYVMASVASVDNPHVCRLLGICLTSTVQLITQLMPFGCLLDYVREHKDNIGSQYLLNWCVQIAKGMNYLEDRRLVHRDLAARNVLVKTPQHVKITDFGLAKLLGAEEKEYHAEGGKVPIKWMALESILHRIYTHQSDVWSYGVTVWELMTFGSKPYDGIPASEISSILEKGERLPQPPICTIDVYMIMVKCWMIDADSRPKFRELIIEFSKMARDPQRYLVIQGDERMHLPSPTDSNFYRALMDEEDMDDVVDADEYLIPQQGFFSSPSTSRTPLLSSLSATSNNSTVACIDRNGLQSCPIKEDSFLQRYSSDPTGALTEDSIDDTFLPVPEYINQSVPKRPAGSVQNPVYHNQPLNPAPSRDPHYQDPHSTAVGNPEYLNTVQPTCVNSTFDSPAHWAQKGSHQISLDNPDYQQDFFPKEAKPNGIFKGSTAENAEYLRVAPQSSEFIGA
Chain of BaF3 (EGFR/A763insFQEA) (P00533 with tags, fused parts or gaps INS763FQEA): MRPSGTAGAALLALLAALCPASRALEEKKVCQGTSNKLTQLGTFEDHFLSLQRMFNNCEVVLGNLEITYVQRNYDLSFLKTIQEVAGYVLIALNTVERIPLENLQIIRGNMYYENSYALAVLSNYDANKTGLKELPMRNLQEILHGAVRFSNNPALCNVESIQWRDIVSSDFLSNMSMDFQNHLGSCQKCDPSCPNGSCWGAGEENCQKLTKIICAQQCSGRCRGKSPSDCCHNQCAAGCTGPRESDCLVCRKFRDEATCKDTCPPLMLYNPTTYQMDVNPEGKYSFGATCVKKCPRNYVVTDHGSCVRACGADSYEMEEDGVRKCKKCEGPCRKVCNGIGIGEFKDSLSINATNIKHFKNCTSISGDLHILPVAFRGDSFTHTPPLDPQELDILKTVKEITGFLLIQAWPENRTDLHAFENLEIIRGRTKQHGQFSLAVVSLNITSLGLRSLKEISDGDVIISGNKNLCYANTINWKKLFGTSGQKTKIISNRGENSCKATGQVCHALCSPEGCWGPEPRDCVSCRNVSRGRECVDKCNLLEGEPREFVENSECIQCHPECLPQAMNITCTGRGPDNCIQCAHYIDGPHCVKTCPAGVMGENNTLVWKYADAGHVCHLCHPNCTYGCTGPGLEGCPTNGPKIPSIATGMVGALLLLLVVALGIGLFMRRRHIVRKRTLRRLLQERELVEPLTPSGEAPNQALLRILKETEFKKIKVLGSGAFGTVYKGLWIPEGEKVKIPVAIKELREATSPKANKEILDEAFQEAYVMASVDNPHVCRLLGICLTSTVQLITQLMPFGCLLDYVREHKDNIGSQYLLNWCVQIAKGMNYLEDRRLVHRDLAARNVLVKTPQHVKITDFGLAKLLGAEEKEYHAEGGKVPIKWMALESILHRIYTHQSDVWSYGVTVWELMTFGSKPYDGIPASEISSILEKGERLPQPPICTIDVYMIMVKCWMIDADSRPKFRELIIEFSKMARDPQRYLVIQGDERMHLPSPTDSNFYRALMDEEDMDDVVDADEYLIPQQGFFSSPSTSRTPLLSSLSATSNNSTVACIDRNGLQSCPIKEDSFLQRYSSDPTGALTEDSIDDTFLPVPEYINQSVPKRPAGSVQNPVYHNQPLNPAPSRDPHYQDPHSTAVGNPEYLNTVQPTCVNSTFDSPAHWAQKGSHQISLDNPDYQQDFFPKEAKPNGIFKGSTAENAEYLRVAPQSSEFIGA

Row | GI50 (BaF3 (EGFR/D770insSVD)) [nM] | GI50 (BaF3 (EGFR/A763insFQEA)) [nM] | GI50 (BaF3 (EGFR/V769insASV)) [nM] | GI50 (BaF3 (EGFR/D770insSVD); hydrochloride) [nM] | GI50 (BaF3 (EGFR/A763insFQEA); hydrochloride) [nM] | GI50 (BaF3 (EGFR/V769insASV); hydrochloride) [nM] | IC50 [1] [nM] | Structure (SMILES)
1 | 144 | 42.6 | 148 | – | – | – | – | C=CC(=O)Nc1cc(Nc2ncnc(-c3cnc4c(C)cccn34)n2)c(OC)cc1N(C)CCN(C)C [Compound 19, N-(2-((2-(dimethylamino)ethyl)(methyl)amino)-4-methoxy-5-((4-(8-methylimidazole[1,2-a]pyridin-3-yl)-1,3,5-triazin-2-yl)amino)phenyl)acrylamide]
2 | – | – | – | 237 | 66.4 | 176 | – | C=CC(=O)Nc1cc(Nc2nccc(-c3cn(C4CC4)c4ccccc34)n2)c(OC)cc1N(C)CCN(C)C [Compound 28, N-(5-((4-(1-cyclopropyl-1H-indole)pyrimidin-2-yl)-2-((2-(dimethylamino)ethyl(methyl)amine)-4-methoxyphenyl)acrylamide hydrochloride]
3 | – | – | – | – | – | – | 57 | C=CC(=O)Nc1cc(Nc2nccc(-n3nc(F)c4ccccc43)n2)c(OC)cc1N(C)CCN(C)C [Example 7]
4 | 78.9 | 51 | 104 | – | – | – | – | C=CC(=O)Nc1cc(Nc2nccc(-c3cn(C)c4ccc(F)cc34)n2)c(OC)cc1N(C)CCNC [Compound 25, N-(5-((4-(5-fluoro-1-methyl-1H-indol-3-yl)pyrimidin-2-yl)amino)-4-methoxy-2-(methyl(2-(methylamino)ethyl)amino)phenyl)acrylamide]
5 | – | – | – | – | – | – | 130 | COc1cc(N2CC[C@@H]2CN(C)C)c(NC(=O)/C=C/CN(C)C)cc1Nc1ncnc(-n2ccc3cnccc32)n1 [Example 2, (R,E)-N-(5-((4-(1H-pyrrole[3,2-c]pyridin-1-yl)-1,3,5-triazin-2-yl)amino)-2-(2-((dimethylamino)methyl)azetidine-1-yl)-4-methoxyphenyl)-4-(dimethylamino)butene-2-amide]
6 | 146 | 106 | 105 | – | – | – | – | C=CC(=O)Nc1cccc(Oc2nc(Nc3ccc(N4CCN(C)CC4)c(F)c3)nc3[nH]ccc23)c1 [Compound 35, N-(3-((2-((3-fluoro-4-(4-methylpiperazin-1-yl)phenyl)amine)-7H-pyrazole[2,3-d]pyrimidine-4-yl)oxo)phenyl)acrylamide]
7 | 963 | 309 | 455 | – | – | – | – | Cc1cc(C(=O)Nc2nc3cccc(Cl)c3n2[C@@H]2CCCCN(C(=O)/C=C/CN(C)C)C2)ccn1 [Compound 39, (R,E)-N-(7-chloro-1-(1-(4-(dimethylamine)-2-butenoyl)azepane-3-yl)-1H-benzo[d]imidazol-2-yl)-2-methylisonicotinamide]
8 | 598 | 53.8 | 406 | – | – | – | – | C=CC(=O)Nc1cc(Nc2nccc(-n3cc(CN(C)C)c(-c4ccccc4)n3)n2)c(OC)cc1N1CCOCC1 [Compound 34, N-(5-((4-(4-((dimethylamine)methyl)-3-phenyl-1H-pyrazol-1-yl)pyrimidin-2-yl)amine)-4-methoxy-2-morpholinylphenyl)acrylamide]
9 | 248 | 193 | 365 | – | – | – | – | C=CC(=O)Nc1cc(Nc2nccc(-c3cn(C)c4ccc(F)cc34)n2)c(OCC)cc1N(C)CCN(C)C [Compound 22, N-(2-((2-(dimethylamino)ethyl)(methyl)amino)-4-ethoxy-5-((4-(5-fluoro-1-methyl-1H-indol-3-yl)pyrimidin-2-yl)amino)phenyl)acrylamide]
10 | 239 | 63.6 | 177 | – | – | – | – | C=CC(=O)Nc1cc(Nc2nccc(-c3cn(C4CC4)c4ccccc34)n2)c(OC)cc1N(C)CCN(C)C [Compound 30]
11 | 81 | 50.1 | 98.6 | – | – | – | – | C=CC(=O)Nc1cc(Nc2nccc(-c3cn(C)c4ccc(F)cc34)n2)c(OC)cc1N(C)CCN(C)C [Compound 21, N-(2-((2-(dimethylamino)ethyl)(methyl)amino)-5-((4-(5-fluoro-1-methyl-1H-indol-3-yl)pyrimidin-2-yl)amino)-4-methoxyphenyl)acrylamide]
12 | – | – | – | – | – | – | 57 | C=CC(=O)Nc1cc(Nc2ncnc(-n3nc(F)c4ccccc43)n2)c(OC)cc1N(C)CCN(C)C [Example 3, N-(2-((2-(dimethylamino)ethyl)(methyl)amino)-5-((4-(3-fluoro-1H-indazol-1-yl)-1,3,5-triazin-2-yl)amino)-4-methoxyphenyl)acrylamide]
13 | 240 | 60.7 | 174 | – | – | – | – | C=CC(=O)Nc1cc(Nc2nccc(-c3cn(C4CC4)c4ccccc34)n2)c(OC)cc1N(C)CCN(C)C [Compound 29, N-(5-((4-(1-cyclopropyl-1H-indole)pyrimidin-2-yl)-2-((2-(dimethylamino)ethyl(methyl)amine)-4-methoxyphenyl)acrylamide methanesulfonate]
14 | 207 | 213 | 266 | – | – | – | – | C=CC(=O)Nc1cc(Nc2nccc(-c3cn(C)c4ccccc34)n2)c(OCC)cc1N(C)CCNC [Compound 24, N-(4-ethoxy-2-(methyl(2-(methylamino)ethyl)amino)-5-((4-(1-methyl-1H-indol-3-yl)pyrimidine-2-yl)amino)phenyl)acrylamide]
15 | 142 | 38.3 | 126 | – | – | – | – | C=CC(=O)Nc1cc(Nc2nccc(-c3cn(C)c4ccccc34)n2)c(OC(F)F)cc1N(C)CCNC [Compound 26, N-(4-(difluoromethoxy)-2-(methyl(2-(methylamino)ethyl)amino)-5-((4-(1-methyl-1H-indole-3-yl)pyrimidin-2-yl)amino)phenyl)acrylamide]
16 | 195 | 177 | 319 | – | – | – | – | C=CC(=O)Nc1cc(Nc2nccc(-c3cn(C)c4ccc(F)cc34)n2)c(OCC)cc1N(C)CCNC [Compound 27, N-(4-ethoxy-5-((4-(5-fluoro-1-methyl-1H-indol-3-yl)pyrimidin-2-yl)amino)-2-(methyl(2-(methylamino)ethyl)amino)phenyl)acrylamide]
17 | > 3330 | 71.2 | > 3330 | – | – | – | – | COc1cc2ncnc(Nc3cccc(Cl)c3F)c2cc1OC(=O)N1CCN(C)C[C@H]1C [Compound 38]
18 | 219 | 122 | 264 | – | – | – | – | C=CC(=O)Nc1cc(Nc2nccc(-c3cn(C)c4ccccc34)n2)c(OCC)cc1N(C)CCN(C)C [Compound 23, N-(2-((2-(dimethylamino)ethyl)(methyl)amino)-4-ethoxy-5-((4-(1-methyl-1H-indole-3-yl)pyrimidin-2-yl)amino)phenyl)acrylamide]
19 | 454 | 170 | 325 | – | – | – | – | C=CC(=O)Nc1cccc(Oc2nc(Nc3ccc(N4CCN(C)CC4)cc3)nc3ccsc23)c1 [Compound 36, N-(3-((2-((4-(4-methylpiperazin-1-yl)phenyl)amine)thieno[3,2-d]pyrimidin-4-yl)oxo)phenyl)acrylamide]
20 | 89.2 | 75.1 | 155 | – | – | – | – | C=CC(=O)Nc1cc(Nc2nccc(-c3cn(C)c4ccc(F)cc34)n2)c(OC(F)F)cc1N(C)CCNC [Compound 20, N-(4-(difluoromethoxy)-5-((4-(5-fluoro-1-methyl-1H-indol-3-yl)pyrimidin-2-yl)amino)-2-(methyl(2-(methylamino)ethyl)amino)phenyl)acrylamide]
